Legend:
[1] = test system: peripheral blood mononuclear cells (PBMC); assay: Th1 and Th2 cytokine profiles produced by mitogen-stimulated PBMC (ELISA), ex vivo; format: cell-based, human
Protocol: The effects of dydrogesterone on Th1 and Th2 cytokine profiles produced by mitogen-stimulated peripheral blood mononuclear cells (=PBMC) were determined. Several studies have pointed to a deviation of cytokine profiles in women when during pregnancy. Pregnancy is associated with a shift towards Th2 bias, evinced by changes in peripheral T cells, by cytokine production by peripheral lymphocytes and by cytokine changes at the maternal-fetal interface. Unexplained recurrent spontaneous abortion (URSA) seems to be associated with a stronger bias towards Th1 cytokines. Women who have earlier been gone through URSA may therefore be regarded as a pre-selected group of patients that will typically respond to an immunological stimulation by showing a Th1 dominated pattern of immune response. The pharmacological test was therefore performed with a suitable URSA group which comprised of women admitted with spontaneous abortion for evacuation, (i) who have had at least two previous unexplained miscarriages, (ii) who were currently undergoing at least a 3rd abortion and (iii) who had been fully investigated. The relationship between habitual abortion and cytokine production response in 54 women with normal pregnancy (and at least 3 previous normal pregnancies) and 23 women with a history of habitual abortion of unexplained aetiology (URSA group) has been investigated. Peripheral blood was obtained by venipuncture from the abortion group on the day of abortion. PBMC is separated by Ficoll-paque (Pharmacia Biotech, Sweden) density gradient centrifugation, suspended in RPMI medium (=“Roswell Park Memorial Institute”-medium; obtained from GIBCO/BRL, USA) containing 10% fetal calf serum, aliquoted into 96 well tissue culture plates at a density of 100.000 cells per well and then stimulated with the mitogen phytohemagglutinin (=PHA, Sigma Chemicals, USA) at a concentration of […] for a period of 96 hours, with autologous placental antigens or with trophoblast antigens. […] Progesterone was tested at concentrations of […]. RU486 was tested at equivalent concentrations. Culture supernatants were harvested at 96 hours for determination of the levels of cytokines secreted by the PBMC into the supernatants. Cytokine levels were determined in the supernatants by enzyme-linked immunosorbent assay (=ELISA). Each sample was tested in the following manner: • PBMC+mitogen • PBMC+mitogen+progesterone • PBMC+mitogen+progesterone+RU486 • PBMC+mitogen+dydrogesterone • PBMC+mitogen+dydrogesterone+RU486 • PBMC+mitogen+Carrier • PBMC+mitogen+Carrier+RU486 Th1 cytokines TNF-α and IFN-γ, and Th2 cytokines IL-4, IL-6 and IL-10 were evaluated in these samples by ELISA using kits that were obtained from Immunotech SA, France. These consisted of “sandwich ELISA”; briefly the first step leads to the capture of the relevant cytokine by monoclonal anti-cytokine antibodies bound to the wells of microtiter plates. In the second step, a second biotinylated monoclonal is added together with streptavidin-enzyme (peroxidase or alkaline phosphatase) conjugate. The biotinylated antibody binds to the solid phase antibody-antigen complex, and in turn, binds the conjugate. After incubation the wells are washed and the binding of the streptavidin-enzyme via biotin is followed by the addition of a chromogenic substrate. The intensity of the coloration produced is proportional to the concentration of the cytokine in the sample. Standard curves are plotted for each of the cytokines using reference recombinant cytokines and the results are read from these curves. The sensitivity of each of the assays is as follows: 5 pg/ml of TNF-α, 0.08 IU/ml of IFN-γ, 5 pg/ml of IL-4 and 5 pg/ml of IL-10. Results will be analysed by the t-test for independent samples.

Th1 cytokine production = settings: in vitro, women with recurrent pregnancy loss; cited from earlier work
[2] = PBMC of women with spontaneous abortion and habitual abortion
[3] = PBMC supernatant, ELISA, 96 hours

Structure (SMILES)	Th1/Th2 bias of cytokine profile [1, 2]	activity of lymphocytes [1, 2]	IFN-γ level [1, 3]	Interleukin 4 level [1, 3]	Interleukin 6 level [1, 3]	release of progesterone induced blocking factor (PIBF) ([1]; women with spontaneous abortion and habitual abortion)	embryotoxic Th1 cytokine production to trophoblast (Th1 cytokine production)
CC(=O)[C@H]1CC[C@H]2[C@@H]3C=CC4=CC(=O)CC[C@@]4(C)[C@@H]3CC[C@]12C [dydrogesterone]	shift from a Th1 towards a Th2 bias	reduced	reduction	marked increase	marked increase	increased release	
CC(=O)[C@H]1CC[C@H]2[C@@H]3CCC4=CC(=O)CC[C@]4(C)[C@H]3CC[C@]12C [progesterone]							inhibits

From patent US20050014735A1, “Treatment of Th2 dominated immunological disease states with progesterone receptor antagonists” (Solvay Pharmaceuticals GmbH, priority 2001, published 2005)
